Assay results from US20250057164A1, “USE OF ISOXAZOLINECARBOXAMIDE FOR SPROUT INHIBITION” (BAYER AKTIENGESELLSCHAFT, priority 2021, published 2025).

Test system: stored potato tubers (Solanum tuberosum, variety: Columbia)
Test: Visual assessment of sprout development on stored potato tubers after spray application on a roller table
Format: in vivo
Method: Application was done on a roller table and were applied with a spray application covering the outside of the tubers homogeneously with the spray solution containing with the respective dose of compound of formula (I) and depending on the treatment with the additional MSO (methylated seed oil) as indicated in the following tables. The spray solutions were prepared to match an equivalent of 10 L water per ton potato.

C=C[C@]1(C(=O)N[C@H]2CO[C@@H](C(=O)OC)C2)CC(c2cc(F)cc(F)c2)=NO1 (relative stereo) [compound of formula (I), methyl(2R*,4R*)-4-[[(5S)-3-(3,5-difluorophenyl)-5-vinyl-4H-isoxazole-5-carbonyl]amino]tetrahydrofuran-2-carboxylate]
Relative inhibition of potato sprouting (0.2 g/to, MSO 0.5 L/to, SC 200, 0 DAA): 0% | Relative inhibition of potato sprouting (0.2 g/to, MSO 0.5 L/to, SC 200, 71 DAA): 67% | Relative inhibition of potato sprouting (2 g/to, MSO 0.5 L/to, SC 200, 0 DAA): 0% | Relative inhibition of potato sprouting (2 g/to, MSO 0.5 L/to, SC 200, 71 DAA): 73% | Relative inhibition of potato sprouting (2 g/to, no MSO, SC 200, 0 DAA): 0% | Relative inhibition of potato sprouting (2 g/to, no MSO, SC 200, 28 DAA): 30% | Relative inhibition of potato sprouting (2 g/to, no MSO, SC 200, 71 DAA): 18% | Relative inhibition of potato sprouting (20 g/to, MSO 0.5 L/to, SC 200, 0 DAA): 0% | Relative inhibition of potato sprouting (20 g/to, MSO 0.5 L/to, SC 200, 71 DAA): 93% | Relative inhibition of potato sprouting (20 g/to, no MSO, SC 200, 0 DAA): 0% | Relative inhibition of potato sprouting (20 g/to, no MSO, SC 200, 28 DAA): 45% | Relative inhibition of potato sprouting (20 g/to, no MSO, SC 200, 71 DAA): 30% | Relative inhibition of potato sprouting (200 g/to, MSO 0.5 L/to, SC 200, 0 DAA): 0% | Relative inhibition of potato sprouting (200 g/to, MSO 0.5 L/to, SC 200, 71 DAA): 95%
